Assay results: the Bradley open melting point set (2014)
Values joined by “and” are separate entries in the source; they are usually repeats but may differ in a detail not shown here. Identical values can stand only once.

Structure (SMILES)	melting point
CCN(CC)C(=S)SSC(=S)N(CC)CC [tetraethylthiuram disulfide]	71 °C
C1CCSC1 [tetrahydrothiophene]	-96 °C
CC(C)OP(=O)(CCP(=O)(OC(C)C)OC(C)C)OC(C)C [tetraisopropyl 1,2-ethylenediphosphonate]	36 °C
CCCCCCCCCCCCCCCCCCCCCCCCCCCCCCCCCCCCCCCCCCCC [tetratetracontane]	88 °C
Cn1cnc2c1c(=O)[nH]c(=O)n2C [theobromine]	348 °C
Cn1c(=O)c2[nH]cnc2n(C)c1=O [theophylline]	270 °C
CC(=O)S [thioacetic acid]	-17 °C
O=C(S)c1ccccc1 [thiobenzoic acid]	17 °C
O=S(=O)(Cl)c1cccs1 [thiophene-2-sulfonyl chloride]	30 °C
Sc1ccccc1 [thiophenol]	-15 °C
Cc1c[nH]c(=O)[nH]c1=O [thymine]	316 °C
Cc1c(N=C=O)cccc1N=C=O [toluene-2,6-diisocyanate]	13 °C
C/C=C/C=C/CO [trans,trans-2,4-hexadien-1-ol]	31 °C
Cl/C=C/Cl [trans-1,2-dichloroethylene]	-50 °C
C/C=C/c1ccccc1 [trans-1-phenyl-1-propene]	-29 °C
O=C(O)/C=C/c1ccc(Cl)cc1Cl [trans-2,4-dichlorocinnamic acid]	234 °C
O=C(O)/C=C/c1ccc(F)cc1F [trans-2,4-difluorocinnamic acid]	217 °C
C[C@@H]1CN[C@@H](C)CN1 [trans-2,5-dimethylpiperazine]	117 °C
C/C=C/CCC [trans-2-hexene]	-99 °C
CC/C=C/CC [trans-3-hexene]	-113 °C

Structure (SMILES)	melting point
COc1ccc(C(=O)C=C(C)c2ccc(OC)cc2)cc1 [trans-4,4'-Dimethoxy-beta-methylchalcone]	87 °C
O=C(O)/C=C/c1ccc(C(F)(F)F)cc1 [trans-4-(trifluoromethyl)cinnamic acid]	232 °C
C/C=C/c1ccc(OC)cc1 [trans-anethole] [listing 1 of 2 here]	22 °C
C/C=C/c1ccc(OC)cc1 [trans-anethole] [listing 2 of 2 here]	23 °C
O=C(/C=C/c1ccccc1)c1ccccc1 [trans-chalcone]	56 °C
O=C(O)/C=C/c1ccccc1 [trans-cinnamic_acid]	133 °C
C/C=C/C(=O)O [trans-crotonic acid]	72 °C
C(=C\c1ccccc1)/c1ccccc1 [trans-stilbene]	124 °C
c1ccc2c(P(c3cccc4ccccc34)c3cccc4ccccc34)cccc2c1 [tri(1-naphthyl)phosphine]	267 °C
CCCCP(=O)(CCCC)CCCC [tri-n-butylphosphine oxide]	67 °C
Cc1nnc2n1-c1ccc(Cl)cc1C(c1ccccc1Cl)=NC2 [triazolam]	234 °C
O=C(O)C(Cl)(Cl)Cl [trichloroacetic acid]	57.5 °C
ClC=C(Cl)Cl [trichloroethylene]	-85 °C
CCP(=O)(CC)CC [triethylphosphine oxide]	49 °C
CP(C)(C)=S [trimethylphosphine sulfide]	156 °C
c1ccc(OP(Oc2ccccc2)Oc2ccccc2)cc1 [triphenyl phosphite]	23 °C
S=C=NC(c1ccccc1)(c1ccccc1)c1ccccc1 [triphenylmethyl isothiocyanate]	135 °C
NCCc1ccc(O)cc1 [tyramine]	164 °C
CCCCC(=O)c1ccccc1 [valerophenone]	-9 °C
COC(CN1CCN(CC(O)C(OC)c2ccccc2)CC1)c1ccccc1 (stereo not drawn) [zipeprol]	83 °C

The next lines start with the values.

melting point	Structure (SMILES)
15 °C	CCCCCCCCCCCCN(CCCCCCCCCCCC)CCCCCCCCCCCC [tri-n-dodecylamine]
55 °C	CCCCCCCCP(=O)(CCCCCCCC)CCCCCCCC [tri-n-octylphosphine oxide]
3 °C	CC(=O)OCC(COC(C)=O)OC(C)=O [triacetin]
293 °C	O=C\1\C=C5/[C@@](/C=C/1)(C)[C@]2(F)[C@H]([C@H]3[C@](C[C@@H]2O)([C@@]4(OC(O[C@@H]4C3)(C)C)C(=O)CO)C)CC5 [triamcinolone acetonide]
93 °C	c1ccc(CN(Cc2ccccc2)Cc2ccccc2)cc1 [tribenzylamine]
160 °C	O=C(O)CC(CC(=O)O)C(=O)O [tricarballylic acid]
-63 °C	ClC(Cl)Cl [trichloromethane]
-5 °C	CCCCCCCCCCCCC [tridecane]
-85 °C	CCOB(OCC)OCC [triethyl borate]
-115 °C	CCN(CC)CC [triethylamine]
-53 °C	COC(OC)OC [trimethyl orthoformate]
199 °C	c1ccc2c(c1)c1ccccc1c1ccccc21 [triphenylene]
94 °C	c1ccc(C(c2ccccc2)c2ccccc2)cc1 [triphenylmethane]
62 °C	Fc1cccc(P(c2cccc(F)c2)c2cccc(F)c2)c1 [tris(3-fluorophenyl)phosphine]
128 °C	Fc1c(F)c(F)c(B(c2c(F)c(F)c(F)c(F)c2F)c2c(F)c(F)c(F)c(F)c2F)c(F)c1F [tris(pentafluorophenyl)borane]
96 °C	CCN(Cc1ccncc1)C(=O)C(CO)c1ccccc1 (stereo not drawn) [tropicamide]
156 °C	COc1ccccc1N1CCN(CCCNc2cc(=O)n(C)c(=O)n2C)CC1 [urapidil]
-92 °C	CCCCC=O [valeraldehyde]
-34 °C	CCCCC(=O)O [valeric acid]
211 °C	COc1cc(C(=O)NN)ccc1O [vanillic acid hydrazide]
100 °C (2×) and 102 °C	c1ccc2c(c1)Cc1ccccc1O2 [xanthene]
94 °C	OC[C@@H](O)[C@H](O)[C@@H](O)CO [xylitol]
106 °C	Cc1cn(C2CC(N=[N+]=[N-])C(CO)O2)c(=O)[nH]c1=O (stereo not drawn) [zidovudine]
